Peptide text beside a SMILES is read from it.
System: Botrytis cinerea (B05.10)
Assay: Resazurin antifungal assay of 23 alpha-factor peptides (dimers, hybrids) towards Botrytis (Example 15, Table 6)
Type: cell-based
Details: resazurin assay, % inhibition of fungal growth, Botrytis cinerea B05.10; for Inhibition at 10 μM: peptide 10 μM; for Inhibition at 20 μM: peptide 20 μM; for Inhibition at 50 μM: peptide 50 μM; for Inhibition at 2.5 μM: peptide 2.5 μM; for Inhibition at 5 μM: peptide 5 μM
Method: The antifungal activity of […] alpha-factor peptide variants towards Botrytis was tested. Experimental design:
Peptides corresponding to SEQ ID NO: 261-264 and 401-420 were chemically synthesized using the solid-phase synthesis method and resuspended in water to a stock solution of 1 mM. The stock solution was aliquoted in cryovials and stored at −80° C.
The Botrytis cinerea culture (B05.10) isolate was acquired from the Centraalbureau voor Schimmelcultures, the Netherlands. The Botrytis fungus was propagated on 0.5% V8 agar plates (200 ml V8 Juice, 3 g CaCO3, 15 g agar, 800-ml millipore water) at 20° C., in a 12 h photoperiod for 21 days.
Fungal conidia were harvested by scraping a Botrytis plate flooded with 1 ml water with 0.1% Tween 80 solution. Conidia were then collected in a 50 ml falcon tube by passing the solution through a 40 micron filter. The solution was then centrifuged at 6000 rpm and the pellet was resuspended in 1 ml of 20% glycerol. The conidia concentration of the resulting solution was counted using a hemocytometer. The stock was diluted to […] using 20% glycerol and frozen in 100 μl aliquots in −80° C. until further use.
Peptides were tested for activity against Botrytis, using the resazurin assay. For this, fungal stock conidia was first diluted to 5000 conidia/well. 50 μl of the spore suspension was added to each well of the sterile 96-well clear bottom testing plate and mixed with 50 μl of peptide solutions to a final concentration of 100, 50, 20, 10, 5 and 2.5 μM. The plate was incubated for 24 h at 20° C. After 24 h, 10 μl of resazurin dye was added to the microtiter plate and incubated again for […]. Fluorescence was measured at 570/620 nm after 4 h of incubation with resazurin.
Growth inhibition was calculated by subtracting the fluorescence values of conidia only wells from sample wells and depicted as % inhibition of fungal growth. Four technical replicates were used for all treatments.

| Compound | Inhibition at 10 μM [%] | Inhibition at 20 μM [%] | Inhibition at 50 μM [%] | Inhibition at 100 μM (peptide 100 μM) [%] | Inhibition at 2.5 μM [%] | Inhibition at 5 μM [%] |
| --- | --- | --- | --- | --- | --- | --- |
| CSCC[C@H](NC(=O)[C@@H]1CCCN1C(=O)[C@H](CCC(N)=O)NC(=O)CNC(=O)[C@@H]1CCCN1C(=O)[C@H](Cc1c[nH]c2ccccc12)NC(=O)[C@H](Cc1ccccc1)NC(=O)[C@H](CCCNC(=N)N)NC(=O)[C@H](CC(C)C)NC(=O)[C@H](Cc1c[nH]c2ccccc12)NC(=O)[C@H](Cc1c[nH]cn1)NC(=O)[C@@H](N)CCCCN)C(=O)N[C@@H](Cc1ccc(O)cc1)C(=O)O [compound 411] (H-KHWLRFWPGQPMY-OH; N-terminus and C-terminus assumed) | <90 | <90 | 100 | – | – | – |
| CSCC[C@H](NC(=O)[C@H](Cc1ccc(O)cc1)NC(=O)[C@H](CCCNC(=N)N)NC(=O)[C@H](CCCNC(=N)N)NC(=O)[C@H](CCCNC(=N)N)NC(=O)[C@H](CCCNC(=N)N)NC(=O)[C@H](CCCNC(=N)N)NC(=O)[C@H](CCCNC(=N)N)NC(=O)[C@H](CCCNC(=N)N)NC(=O)[C@@H](N)CCCNC(=N)N)C(=O)N1CCC[C@H]1C(=O)N[C@@H](CCC(N)=O)C(=O)NCC(=O)N1CCC[C@H]1C(=O)N[C@@H](CCCCN)C(=O)N[C@@H](CC(C)C)C(=O)N[C@@H](CCC(N)=O)C(=O)N[C@@H](CC(C)C)C(=O)N[C@@H](Cc1c[nH]c2ccccc12)C(=O)N[C@@H](Cc1c[nH]cn1)C(=O)N[C@@H](Cc1c[nH]c2ccccc12)C(=O)O [compound 420] (H-RRRRRRRRYMPQGPKLQLWHW-OH; N-terminus and C-terminus assumed) | – | – | 100 | 100 | – | – |
| CSCC[C@H](NC(=O)[C@@H]1CCCN1C(=O)[C@H](CCC(N)=O)NC(=O)CNC(=O)[C@@H]1CCCN1C(=O)[C@H](CCCCN)NC(=O)[C@H](Cc1ccccc1)NC(=O)[C@H](CCCNC(=N)N)NC(=O)[C@H](CC(C)C)NC(=O)[C@H](Cc1ccc(O)cc1)NC(=O)[C@H](Cc1c[nH]cn1)NC(=O)[C@@H](N)CCCCN)C(=O)N[C@@H](Cc1ccc(O)cc1)C(=O)O [compound 403] (H-KHYLRFKPGQPMY-OH; N-terminus and C-terminus assumed) | 96.0 | 100 | 100 | – | <90 | <90 |
| CSCC[C@H](NC(=O)[C@@H]1CCCN1C(=O)[C@H](CCC(N)=O)NC(=O)CNC(=O)[C@H](Cc1c[nH]c2ccccc12)NC(=O)[C@H](CC(N)=O)NC(=O)[C@H](Cc1ccccc1)NC(=O)[C@H](CCC(N)=O)NC(=O)[C@H](CC(C)C)NC(=O)[C@H](CC(C)C)NC(=O)[C@H](Cc1c[nH]cn1)NC(=O)[C@@H](N)Cc1c[nH]c2ccccc12)C(=O)N[C@@H](Cc1ccc(O)cc1)C(=O)O [compound 408] (H-WHLLQFNWGQPMY-OH; N-terminus and C-terminus assumed) | <90 | <90 | 100 | – | – | – |
| CSCC[C@H](NC(=O)[C@H](CO)NC(=O)[C@H](CCC(N)=O)NC(=O)CNC(=O)[C@H](CCCNC(=N)N)NC(=O)[C@H](CCCCN)NC(=O)[C@H](CC(C)C)NC(=O)[C@@H](NC(=O)[C@H](CC(C)C)NC(=O)[C@@H](NC(=O)[C@@H](NC(=O)[C@@H](N)Cc1c[nH]c2ccccc12)[C@@H](C)O)C(C)C)[C@@H](C)O)C(=O)N[C@@H](Cc1ccc(O)cc1)C(=O)O [compound 409] (H-WTVLTLKRGQSMY-OH; N-terminus and C-terminus assumed) | 97.7 | 100 | 100 | – | <90 | <90 |
| CC[C@H](C)[C@H](NC(=O)[C@H](CCCNC(=N)N)NC(=O)[C@H](CC(C)C)NC(=O)[C@H](Cc1c[nH]c2ccccc12)NC(=O)[C@H](Cc1c[nH]cn1)NC(=O)[C@@H](N)CCCCN)C(=O)N[C@@H](Cc1c[nH]c2ccccc12)C(=O)N1CCC[C@H]1C(=O)NCC(=O)N[C@@H](CCC(N)=O)C(=O)N1CCC[C@H]1C(=O)N[C@@H](CCSC)C(=O)N[C@@H](Cc1ccc(O)cc1)C(=O)O [compound 412] (H-KHWLRIWPGQPMY-OH; N-terminus and C-terminus assumed) | <90 | <90 | 100 | – | – | – |
| CSCC[C@H](NC(=O)[C@@H]1CCCN1C(=O)[C@H](CCC(N)=O)NC(=O)CNC(=O)[C@@H]1CCCN1C(=O)[C@H](Cc1ccccc1)NC(=O)[C@H](CC(C)C)NC(=O)[C@@H](NC(=O)[C@H](CC(C)C)NC(=O)[C@H](Cc1c[nH]c2ccccc12)NC(=O)[C@H](Cc1c[nH]cn1)NC(=O)[C@@H](N)CCCCN)[C@@H](C)O)C(=O)N[C@@H](Cc1ccc(O)cc1)C(=O)O [compound 405] (H-KHWLTLFPGQPMY-OH; N-terminus and C-terminus assumed) | – | – | <90 | – | – | – |
| CSCC[C@H](NC(=O)[C@@H]1CCCN1C(=O)[C@H](CCC(N)=O)NC(=O)CNC(=O)[C@H](C)NC(=O)[C@H](CCCNC(=N)N)NC(=O)[C@H](CC(C)C)NC(=O)[C@H](CCCNC(=N)N)NC(=O)CNC(=O)[C@H](Cc1c[nH]c2ccccc12)NC(=O)[C@H](Cc1c[nH]cn1)NC(=O)[C@@H](N)CCCCN)C(=O)N[C@@H](Cc1ccc(O)cc1)C(=O)NCC(=O)NCC(=O)NCC(=O)NCC(=O)N[C@@H](Cc1ccc(O)cc1)C(=O)N[C@@H](CCSC)C(=O)N1CCC[C@H]1C(=O)N[C@@H](CCC(N)=O)C(=O)NCC(=O)N[C@@H](C)C(=O)N[C@@H](CCCNC(=N)N)C(=O)N[C@@H](CC(C)C)C(=O)N[C@@H](CCCNC(=N)N)C(=O)NCC(=O)N[C@@H](Cc1c[nH]c2ccccc12)C(=O)N[C@@H](Cc1c[nH]cn1)C(=O)N[C@@H](CCCCN)C(=O)O [compound 264] (H-KHWGRLRAGQPMYGGGGYMPQGARLRGWHK-OH; N-terminus and C-terminus assumed) | 100 | 100 | 100 | – | <90 | 96.2 |

Reference: patent publication US20250382332A1, “NOVEL ALPHA-FACTOR BASED PEPTIDES WITH ANTIFUNGAL ACTIVITY” (INVAIO SCIENCES, INC., priority 2024, published 2025)
